# In patent US20240262811A1, “BENZIMIDAZOYL GLP-1 RECEPTOR AGONISTS, PHARMACEUTICAL COMPOSITIONS COMPRISING THE SAME, AND METHODS FOR THEIR USE” (Carmot Therapeutics, Inc., priority 2021, published 2024):
# Target: T1, human GLP-1 receptor (Homo sapiens, UniProt P43220)
# T1 construct: expressed in transfected cells
# Test: GLP-1R cAMP Assay (HitHunter cAMP accumulation in CHO cells stably overexpressing the human GLP-1 receptor)
# Type: cell-based
# Details: CHO cells overexpressing human GLP-1 receptor, 30 min treatment, 20-point dose response in triplicate
# Procedure: cAMP accumulation was measured in Chinese hamster ovary (CHO) cells stably overexpressing the human GLP-1 receptor using the HitHunter cAMP Assay for Small Molecules Kit (Eurofins). Briefly, cells were grown in Ham's F12 Nutrient Mix with 10% FBS, and lifted with Cell Dissociation Buffer, Enzyme free, PBS based (ThermoFisher). Cells were pelleted, and resuspended in Hank's buffered saline solution with 10 mM HEPES, and 625 μM 3-isobutyl-1-methylxanthine. The anti-cAMP antibody reagent was then added to cells at a 1:2 ratio and 5 μL of mixture was seeded in 384-well small volume white assay plates, at 10,000 cells/well. Cells were then treated with 50 nL compound using an ECHO 550 acoustic dispenser (Labcyte) in a 20-point dose response format in triplicate for 30 min. Cells were then lysed, and detection reagents added according to the manufacturer's protocol. After overnight incubation, luminescence was measured using a Perkin Elmer Envision plate reader. Dose response curves were analyzed using GraphPad Prism 9.0.
# Molecular weights are calculated by standard techniques, and mass spectrometry results are reported according to the Examples above.
# T1 sequence (P43220 24-463): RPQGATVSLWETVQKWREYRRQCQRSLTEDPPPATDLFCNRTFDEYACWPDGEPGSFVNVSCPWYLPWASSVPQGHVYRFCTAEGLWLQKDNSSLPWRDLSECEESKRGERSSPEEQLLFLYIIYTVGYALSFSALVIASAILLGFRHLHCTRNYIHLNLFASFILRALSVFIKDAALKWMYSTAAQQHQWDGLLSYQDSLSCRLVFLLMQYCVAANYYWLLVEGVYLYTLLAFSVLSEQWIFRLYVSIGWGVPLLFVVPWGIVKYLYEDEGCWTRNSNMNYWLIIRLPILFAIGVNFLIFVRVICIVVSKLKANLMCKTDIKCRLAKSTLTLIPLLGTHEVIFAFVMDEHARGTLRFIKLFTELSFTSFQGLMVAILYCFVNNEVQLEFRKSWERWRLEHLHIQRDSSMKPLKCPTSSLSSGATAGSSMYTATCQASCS
structure (smiles),measurement,value
"O=C(O)c1ccc2nc(CN3CC[C@H](Oc4ccnc(COc5ccc(Cl)cc5F)c4)C3)n(C[C@@H]3CCO3)c2c1 [Compound 289, 2-{[(3S)-3-({2-[(4-chloro-2-fluorophenoxy)methyl]pyridin-4-yl}oxy)pyrrolidin-1-yl]methyl}-1-{[(2S)-oxetan-2-yl]methyl}-1H-1,3-benzodiazole-6-carboxylic acid]",EC50,< 50 nM
